Experimental data reported in ChEMBL document CHEMBL1201862, “PubChem BioAssay data set” (2004).
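Dose response: 5 concentrations. Exposure: 48 h. Format: 96-well plates. Endpoint: linear interpolation; highest concentration if not reached. Here, GI50 denotes the concentration required for 50% inhibition of growth.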 Active and inactive are the calls of the source. No stated cut-off is given here; in the data, active = GI50 up to about 1.1 µM and inactive = higher.

Tests used:
Test in all cases: NCI-60 cell line screen, 48 h
[1] = test system: 786-0
[2] = test system: A498
[3] = test system: A549
[4] = test system: ACHN
[5] = test system: BT-549
[6] = test system: CAKI-1
[7] = test system: CCRF-CEM
[8] = test system: COLO 205
[9] = test system: DU-145
[10] = test system: EKVX
[11] = test system: HCC 2998
[12] = test system: HCT-116
[13] = test system: HCT-15
[14] = test system: HL-60
[15] = test system: HOP-62
[16] = test system: HOP-92
[17] = test system: HT-29
[18] = test system: Hs-578T
[19] = test system: IGROV-1
[20] = test system: K562
[21] = test system: KM12
[22] = test system: LOX IMVI
[23] = test system: M14
[24] = test system: MCF7
[25] = test system: MDA-MB-231
[26] = test system: MDA-MB-435
[27] = test system: MDA-N
[28] = test system: MOLT-4
[29] = test system: Malme-3M
[30] = test system: NCI-H226
[31] = test system: NCI-H23
[32] = test system: NCI-H460
[33] = test system: NCI-H522
[34] = test system: NCI/ADR-RES
[35] = test system: OVCAR-3
[36] = test system: OVCAR-4
[37] = test system: OVCAR-5
[38] = test system: OVCAR-8
[39] = test system: PC-3
[40] = test system: RPMI-8226
[41] = test system: RXF 393
[42] = test system: SF-268
[43] = test system: SF-295
[44] = test system: SF-539
[45] = test system: SK-MEL-28
[46] = test system: SK-MEL-2
[47] = test system: SK-MEL-5
[48] = test system: SK-OV-3
[49] = test system: SN12C
[50] = test system: SNB-19
[51] = test system: SNB-75
[52] = test system: SR
[53] = test system: SW-620
[54] = test system: T47D
[55] = test system: TK-10
[56] = test system: U-251
[57] = test system: UACC-257
[58] = test system: UACC-62
[59] = test system: UO-31

`O=S(=O)(O)c1cc(S(=O)(=O)O)c2c(/N=N/c3cccc4ccccc34)c(O)ccc2c1` was tested, and the GI50 [1] was > 100 µM (inactive), the GI50 [2] was > 100 µM (inactive) and the GI50 [3] was > 100 µM (inactive). For the same compound, the GI50 [4] was > 100 µM (inactive), the GI50 [5] was > 100 µM (inactive) and the GI50 [6] was > 100 µM (inactive). For the same compound, the GI50 [7] was > 100 µM (inactive), the GI50 [8] was > 100 µM (inactive) and the GI50 [9] was > 100 µM (inactive). The GI50 [10] was > 100 µM (inactive), the GI50 [11] was > 100 µM (inactive) and the GI50 [12] was > 100 µM (inactive). The GI50 [13] was greater than 100 µM, the GI50 [14] was > 100 µM (inactive) and the GI50 [15] was > 100 µM (inactive). The GI50 [16] was > 100 µM (inactive), the GI50 [17] was > 100 µM (inactive) and the GI50 [18] was > 100 µM (inactive). For the same compound, the GI50 [19] was > 100 µM (inactive), the GI50 [20] was > 100 µM (inactive) and the GI50 [21] was > 100 µM (inactive). The GI50 [22] was > 100 µM (inactive), the GI50 [23] was > 100 µM (inactive) and the GI50 [24] was > 100 µM (inactive). The GI50 [25] was > 100 µM (inactive), the GI50 [26] was > 100 µM (inactive) and the GI50 [27] was > 100 µM (inactive). The GI50 [28] was > 100 µM (inactive), the GI50 [29] was > 100 µM (inactive) and the GI50 [30] was > 100 µM (inactive). For the same compound, the GI50 [31] was > 100 µM (inactive), the GI50 [32] was > 100 µM (inactive) and the GI50 [33] was > 100 µM (inactive). The GI50 [34] was > 100 µM (inactive), the GI50 [35] was > 100 µM (inactive) and the GI50 [36] was > 100 µM (inactive). The GI50 [37] was > 100 µM (inactive), the GI50 [38] was > 100 µM (inactive) and the GI50 [39] was > 100 µM (inactive). The GI50 [40] was > 100 µM (inactive), the GI50 [41] was > 100 µM (inactive) and the GI50 [42] was > 100 µM (inactive). For the same compound, the GI50 [43] was > 100 µM (inactive), the GI50 [44] was > 100 µM (inactive) and the GI50 [45] was > 100 µM (inactive). For the same compound, the GI50 [46] was > 100 µM (inactive), the GI50 [47] was > 100 µM (inactive) and the GI50 [48] was > 100 µM (inactive). The GI50 [49] was > 100 µM (inactive), the GI50 [50] was > 100 µM (inactive) and the GI50 [51] was > 100 µM (inactive). For the same compound, the GI50 [52] was > 100 µM (inactive), the GI50 [53] was > 100 µM (inactive) and the GI50 [54] was > 100 µM (inactive). The GI50 [55] was > 100 µM (inactive), the GI50 [56] was > 100 µM (inactive) and the GI50 [57] was > 100 µM (inactive). For the same compound, the GI50 [58] was > 100 µM (inactive) and the GI50 [59] was > 100 µM (inactive).
In the case of `O=[N+]([O-])c1cc(/C=N/C23CC4CC(CC(C4)C2)C3)ccc1Cl`, the GI50 [1] is reported as 19.8 µM (inactive), the GI50 [2] is reported as > 100 µM (inactive) and the GI50 [3] is reported as > 100 µM (inactive). For the same compound, the GI50 [4] was 24 µM (inactive), the GI50 [5] was 21 µM (inactive) and the GI50 [6] was 6.71 µM (inactive). For the same compound, the GI50 [7] was 2.82 µM (inactive), the GI50 [8] was 42.6 µM (inactive) and the GI50 [9] was 27.8 µM (inactive). The GI50 [10] was 29.9 µM (inactive), the GI50 [11] was 30.5 µM (inactive) and the GI50 [12] was 3.94 µM (inactive). For the same compound, the GI50 [13] was 22.6 µM, the GI50 [14] was 3.03 µM (inactive) and the GI50 [15] was 4 µM (inactive). For the same compound, the GI50 [16] was 34.5 µM (inactive), the GI50 [17] was 19.1 µM (inactive) and the GI50 [18] was 38.8 µM (inactive). For the same compound, the GI50 [19] was 23.6 µM (inactive), the GI50 [20] was 4.42 µM (inactive) and the GI50 [21] was 17.1 µM (inactive). For the same compound, the GI50 [22] was 19 µM (inactive), the GI50 [23] was 12.3 µM (inactive) and the GI50 [24] was 9.02 µM (inactive). The GI50 [25] was 11.7 µM (inactive), the GI50 [26] was 16.5 µM (inactive) and the GI50 [27] was 8.02 µM (inactive). The GI50 [28] was 8.73 µM (inactive), the GI50 [29] was 20.9 µM (inactive) and the GI50 [30] was 51.1 µM (inactive). For the same compound, the GI50 [31] was 19.1 µM (inactive), the GI50 [32] was 31.8 µM (inactive) and the GI50 [33] was 13.4 µM (inactive). For the same compound, the GI50 [34] was 26.3 µM (inactive), the GI50 [35] was 17.9 µM (inactive) and the GI50 [36] was 19.5 µM (inactive). For the same compound, the GI50 [37] was 34 µM (inactive), the GI50 [38] was 25.1 µM (inactive) and the GI50 [39] was 19.8 µM (inactive). The GI50 [40] was 4.31 µM (inactive), the GI50 [41] was 19.2 µM (inactive) and the GI50 [42] was 28.7 µM (inactive). The GI50 [43] was 37.9 µM (inactive), the GI50 [44] was 22.9 µM (inactive) and the GI50 [45] was 18.1 µM (inactive). For the same compound, the GI50 [46] was 20.5 µM (inactive), the GI50 [47] was 21.5 µM (inactive) and the GI50 [48] was 18.4 µM (inactive). The GI50 [49] was 15.9 µM (inactive), the GI50 [50] was 28.6 µM (inactive) and the GI50 [51] was 36.2 µM (inactive). For the same compound, the GI50 [52] was 4.37 µM (inactive), the GI50 [53] was 13 µM (inactive) and the GI50 [54] was 18.2 µM (inactive). The GI50 [55] was 29.7 µM (inactive), the GI50 [56] was 18.7 µM (inactive) and the GI50 [57] was 20.7 µM (inactive). For the same compound, the GI50 [58] was 14.3 µM (inactive) and the GI50 [59] was 7.52 µM (inactive).
